Test results taken from PMC10046369, “Low-Affinity/High-Selectivity Dopamine Transport Inhibition Sufficient to Rescue Cognitive Functions in the Aging Rat” (Biomolecules, 2023).

Tests used:
Experiment in all cases: biochemical
Parameters in all cases: KINOMEscan competition binding panel, per cent of control
Details in all cases: read-out: %Ctrl @ 2800nM
PIM1 = PIM1 (Homo sapiens, UniProt P11309)
Summary of the method: (§1)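 Competition binding panel (KINOMEscan) across 450 human kinases and disease-relevant mutants, run to the contractor's standard protocol. Values are % control: (test signal − positive control signal)/(negative control signal − positive control signal) × 100, with lower values indicating stronger binding.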

MET = MET (Homo sapiens, UniProt P08581)
Summary of the method: as §1

PCTK1 = biological target: T1, PCTK1 (Homo sapiens, UniProt Q00536)
T1 construct: gene CDK16
T1 sequence (Q00536 whole entry): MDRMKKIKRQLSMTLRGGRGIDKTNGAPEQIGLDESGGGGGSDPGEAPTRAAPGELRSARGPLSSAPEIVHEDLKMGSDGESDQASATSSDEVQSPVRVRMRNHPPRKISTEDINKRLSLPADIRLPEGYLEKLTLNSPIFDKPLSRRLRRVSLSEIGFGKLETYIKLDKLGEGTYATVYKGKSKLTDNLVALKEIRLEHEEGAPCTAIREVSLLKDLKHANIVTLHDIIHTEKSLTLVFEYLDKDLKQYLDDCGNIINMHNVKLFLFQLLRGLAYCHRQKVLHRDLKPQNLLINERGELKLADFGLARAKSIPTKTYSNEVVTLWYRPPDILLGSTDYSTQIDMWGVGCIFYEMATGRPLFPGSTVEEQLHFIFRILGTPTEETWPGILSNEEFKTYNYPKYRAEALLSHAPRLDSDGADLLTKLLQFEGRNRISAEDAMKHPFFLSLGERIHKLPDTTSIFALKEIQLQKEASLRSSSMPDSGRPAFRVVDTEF
Summary of the method: as §1

SRC = SRC (Homo sapiens, UniProt P12931)
Sequence of SRC (P12931 whole entry): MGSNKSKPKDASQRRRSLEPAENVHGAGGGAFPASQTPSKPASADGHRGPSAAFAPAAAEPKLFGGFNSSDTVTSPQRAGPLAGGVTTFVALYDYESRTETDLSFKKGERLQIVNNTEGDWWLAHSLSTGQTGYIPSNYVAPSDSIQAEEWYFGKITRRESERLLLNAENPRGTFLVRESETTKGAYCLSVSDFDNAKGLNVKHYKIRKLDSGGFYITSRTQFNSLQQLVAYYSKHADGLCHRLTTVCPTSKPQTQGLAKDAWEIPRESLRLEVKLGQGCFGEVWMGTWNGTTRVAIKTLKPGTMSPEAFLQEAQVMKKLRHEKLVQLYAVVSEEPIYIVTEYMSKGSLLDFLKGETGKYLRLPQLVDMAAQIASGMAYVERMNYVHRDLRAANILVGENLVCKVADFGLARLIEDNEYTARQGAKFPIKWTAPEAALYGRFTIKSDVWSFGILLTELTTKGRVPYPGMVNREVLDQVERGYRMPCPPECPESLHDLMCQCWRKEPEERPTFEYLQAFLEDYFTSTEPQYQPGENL
Summary of the method: as §1

SGK2 = SGK2 (Homo sapiens, UniProt Q9HBY8)
Sequence of SGK2 (Q9HBY8 whole entry): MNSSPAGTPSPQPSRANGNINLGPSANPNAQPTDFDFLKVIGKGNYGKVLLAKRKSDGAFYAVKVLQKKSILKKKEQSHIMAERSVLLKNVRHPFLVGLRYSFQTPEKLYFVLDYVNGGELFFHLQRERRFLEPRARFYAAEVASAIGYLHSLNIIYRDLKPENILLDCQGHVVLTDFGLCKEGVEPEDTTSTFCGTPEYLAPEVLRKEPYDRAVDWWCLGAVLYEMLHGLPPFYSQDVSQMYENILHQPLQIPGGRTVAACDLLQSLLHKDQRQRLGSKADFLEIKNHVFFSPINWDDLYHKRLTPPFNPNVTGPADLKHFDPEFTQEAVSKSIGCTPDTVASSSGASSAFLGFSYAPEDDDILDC
Summary of the method: as §1

[1] = biological target: T2, RPS6KA5(Kin.Dom.2-C-terminal) (Homo sapiens, UniProt O75582)
T2 construct: Kin.Dom.2-C-terminal
Summary of the method: as §1

PHKG2 = PHKG2 (Homo sapiens, UniProt P15735)
Sequence of PHKG2 (P15735 whole entry): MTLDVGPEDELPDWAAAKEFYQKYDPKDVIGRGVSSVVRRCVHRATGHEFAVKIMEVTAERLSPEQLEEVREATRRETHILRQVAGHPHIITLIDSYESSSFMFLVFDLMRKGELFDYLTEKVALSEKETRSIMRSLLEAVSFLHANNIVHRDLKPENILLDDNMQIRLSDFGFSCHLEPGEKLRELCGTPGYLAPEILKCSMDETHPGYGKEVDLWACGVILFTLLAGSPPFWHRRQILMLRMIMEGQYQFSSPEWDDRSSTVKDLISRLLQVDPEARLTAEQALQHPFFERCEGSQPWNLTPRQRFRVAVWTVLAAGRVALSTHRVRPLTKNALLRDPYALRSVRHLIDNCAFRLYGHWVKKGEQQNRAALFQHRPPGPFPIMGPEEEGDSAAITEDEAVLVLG
Summary of the method: as §1

PDGFRB = PDGFRB (Homo sapiens, UniProt P09619)
Sequence of PDGFRB (P09619 whole entry): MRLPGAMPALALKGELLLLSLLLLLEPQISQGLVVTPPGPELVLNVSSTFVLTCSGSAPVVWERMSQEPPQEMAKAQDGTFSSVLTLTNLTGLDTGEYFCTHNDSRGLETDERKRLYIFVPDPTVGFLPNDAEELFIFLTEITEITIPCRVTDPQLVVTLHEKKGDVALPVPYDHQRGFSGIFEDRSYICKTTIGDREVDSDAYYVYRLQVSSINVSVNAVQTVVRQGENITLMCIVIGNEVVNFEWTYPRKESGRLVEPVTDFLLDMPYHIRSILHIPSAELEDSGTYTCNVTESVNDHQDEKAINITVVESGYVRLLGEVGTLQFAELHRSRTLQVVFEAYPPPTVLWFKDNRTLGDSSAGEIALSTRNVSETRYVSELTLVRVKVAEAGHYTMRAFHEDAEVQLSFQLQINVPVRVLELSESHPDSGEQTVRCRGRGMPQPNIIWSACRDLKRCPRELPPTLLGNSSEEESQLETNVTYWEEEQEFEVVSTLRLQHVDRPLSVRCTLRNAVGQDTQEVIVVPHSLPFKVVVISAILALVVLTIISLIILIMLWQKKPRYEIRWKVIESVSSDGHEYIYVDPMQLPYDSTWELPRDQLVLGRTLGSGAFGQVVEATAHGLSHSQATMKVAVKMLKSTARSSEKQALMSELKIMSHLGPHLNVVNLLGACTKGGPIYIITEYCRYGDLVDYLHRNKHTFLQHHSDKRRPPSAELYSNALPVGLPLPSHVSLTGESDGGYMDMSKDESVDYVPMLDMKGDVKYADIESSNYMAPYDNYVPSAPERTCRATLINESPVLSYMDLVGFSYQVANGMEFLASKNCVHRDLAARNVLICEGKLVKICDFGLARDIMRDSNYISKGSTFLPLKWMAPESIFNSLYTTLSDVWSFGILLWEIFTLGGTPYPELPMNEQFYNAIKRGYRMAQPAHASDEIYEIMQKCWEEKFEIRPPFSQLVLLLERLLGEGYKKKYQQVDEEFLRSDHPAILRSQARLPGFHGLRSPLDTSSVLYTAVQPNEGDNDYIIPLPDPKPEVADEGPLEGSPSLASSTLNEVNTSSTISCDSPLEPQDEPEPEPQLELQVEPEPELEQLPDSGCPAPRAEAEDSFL
Summary of the method: as §1

GSK3B = GSK3B (Homo sapiens, UniProt P49841)
Summary of the method: as §1

TNIK = TNIK (Homo sapiens, UniProt Q9UKE5)
Summary of the method: as §1

DDR1 = DDR1 (Homo sapiens, UniProt Q08345)
Sequence of DDR1 (Q08345 whole entry): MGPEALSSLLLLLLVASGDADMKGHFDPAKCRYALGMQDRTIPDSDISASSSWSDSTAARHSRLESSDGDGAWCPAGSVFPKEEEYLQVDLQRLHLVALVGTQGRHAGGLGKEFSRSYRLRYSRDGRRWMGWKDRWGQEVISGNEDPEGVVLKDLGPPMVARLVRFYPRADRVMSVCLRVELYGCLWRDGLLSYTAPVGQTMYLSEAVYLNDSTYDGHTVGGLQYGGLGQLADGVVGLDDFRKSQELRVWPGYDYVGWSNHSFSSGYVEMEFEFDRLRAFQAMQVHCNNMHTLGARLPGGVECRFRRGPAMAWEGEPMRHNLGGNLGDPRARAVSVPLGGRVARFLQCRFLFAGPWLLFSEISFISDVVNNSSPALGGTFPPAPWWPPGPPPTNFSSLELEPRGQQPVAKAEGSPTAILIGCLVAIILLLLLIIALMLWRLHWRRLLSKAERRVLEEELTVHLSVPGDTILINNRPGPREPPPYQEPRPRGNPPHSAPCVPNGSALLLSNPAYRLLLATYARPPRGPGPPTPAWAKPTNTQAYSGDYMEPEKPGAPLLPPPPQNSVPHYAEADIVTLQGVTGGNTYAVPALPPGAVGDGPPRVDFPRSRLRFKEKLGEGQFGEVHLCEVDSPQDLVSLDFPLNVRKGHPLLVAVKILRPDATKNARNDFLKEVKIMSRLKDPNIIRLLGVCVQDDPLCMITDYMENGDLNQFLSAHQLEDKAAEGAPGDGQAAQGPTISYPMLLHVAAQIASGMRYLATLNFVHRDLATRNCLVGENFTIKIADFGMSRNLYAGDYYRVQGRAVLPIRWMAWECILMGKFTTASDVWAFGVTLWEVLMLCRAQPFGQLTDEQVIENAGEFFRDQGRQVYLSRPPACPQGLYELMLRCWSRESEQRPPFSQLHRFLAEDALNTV
Summary of the method: as §1

NEK7 = NEK7 (Homo sapiens, UniProt Q8TDX7)
Summary of the method: as §1

p38-beta = biological target: T3, p38-beta (Homo sapiens, UniProt Q15759)
T3 construct: gene MAPK11
Summary of the method: as §1

ROCK1 = ROCK1 (Homo sapiens, UniProt Q13464)
Summary of the method: as §1

CSNK1D = CSNK1D (Homo sapiens, UniProt P48730)
Summary of the method: as §1

ACVR1B = ACVR1B (Homo sapiens, UniProt P36896)
Summary of the method: as §1

IRAK4 = IRAK4 (Homo sapiens, UniProt Q9NWZ3)
Sequence of IRAK4 (Q9NWZ3 whole entry): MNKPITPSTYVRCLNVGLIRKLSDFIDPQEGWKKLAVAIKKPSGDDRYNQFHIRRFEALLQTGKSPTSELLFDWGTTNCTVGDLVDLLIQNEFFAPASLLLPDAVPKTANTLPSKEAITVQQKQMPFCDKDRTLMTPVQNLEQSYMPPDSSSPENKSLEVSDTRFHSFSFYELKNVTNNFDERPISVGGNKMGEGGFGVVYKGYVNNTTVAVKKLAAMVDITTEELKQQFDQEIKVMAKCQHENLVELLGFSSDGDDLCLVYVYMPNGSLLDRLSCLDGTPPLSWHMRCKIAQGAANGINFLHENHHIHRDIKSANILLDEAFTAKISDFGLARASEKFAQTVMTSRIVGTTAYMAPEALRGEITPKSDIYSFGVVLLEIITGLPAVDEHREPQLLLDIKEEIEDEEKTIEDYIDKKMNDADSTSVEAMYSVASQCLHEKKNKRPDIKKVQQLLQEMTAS
Summary of the method: as §1

HIPK3 = HIPK3 (Homo sapiens, UniProt Q9H422)
Summary of the method: as §1

NEK4 = NEK4 (Homo sapiens, UniProt P51957)
Summary of the method: as §1

[2] = biological target: T4, ABL1(M351T)-phosphorylated (Homo sapiens, UniProt P00519, M351T)
T4 construct: phosphorylated
Summary of the method: as §1

EPHA7 = EPHA7 (Homo sapiens, UniProt Q15375)
Summary of the method: as §1

EPHA6 = EPHA6 (Homo sapiens, UniProt Q9UF33)
Summary of the method: as §1

PFTAIRE2 = biological target: T5, PFTAIRE2 (Homo sapiens, UniProt Q96Q40)
T5 construct: gene CDK15
Summary of the method: as §1

[3] = biological target: T6, RSK3(Kin.Dom.2-C-terminal) (Homo sapiens, UniProt Q15349)
T6 construct: gene RPS6KA2; Kin.Dom.2-C-terminal
Summary of the method: as §1

NEK10 = NEK10 (Homo sapiens, UniProt Q6ZWH5)
Summary of the method: as §1

BRK = biological target: T7, BRK (Homo sapiens, UniProt Q13882)
T7 construct: gene PTK6
T7 sequence (Q13882 whole entry): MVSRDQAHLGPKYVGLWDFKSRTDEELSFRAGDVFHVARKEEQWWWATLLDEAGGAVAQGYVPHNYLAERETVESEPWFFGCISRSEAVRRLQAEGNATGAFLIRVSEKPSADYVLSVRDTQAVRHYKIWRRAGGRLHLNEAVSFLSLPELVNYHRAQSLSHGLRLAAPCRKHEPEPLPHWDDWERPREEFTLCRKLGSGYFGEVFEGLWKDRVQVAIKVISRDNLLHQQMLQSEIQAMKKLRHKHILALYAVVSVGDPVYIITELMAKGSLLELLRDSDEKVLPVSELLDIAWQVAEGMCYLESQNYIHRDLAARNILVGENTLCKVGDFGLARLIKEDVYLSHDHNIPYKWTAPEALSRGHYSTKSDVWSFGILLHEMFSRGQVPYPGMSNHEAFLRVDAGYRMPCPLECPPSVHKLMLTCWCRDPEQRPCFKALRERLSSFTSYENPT
Summary of the method: as §1

## [O-][S@@+](Cc1cncs1)C(c1ccccc1)c1ccccc1 [S-CE-123, (S)-5-((Benzhydrylsulfinyl)Methyl)Thiazole]
PIM1
  remaining binding at 2.8 µM: 100%
MET
  remaining binding at 2.8 µM: 99%
PCTK1
  remaining binding at 2.8 µM: 97%
SRC
  remaining binding at 2.8 µM: 100%
SGK2
  remaining binding at 2.8 µM: 100%
[1]
  remaining binding at 2.8 µM: 85%
PHKG2
  remaining binding at 2.8 µM: 96%
PDGFRB
  remaining binding at 2.8 µM: 99%
GSK3B
  remaining binding at 2.8 µM: 92%
TNIK
  remaining binding at 2.8 µM: 89%
DDR1
  remaining binding at 2.8 µM: 100%
NEK7
  remaining binding at 2.8 µM: 100%
p38-beta
  remaining binding at 2.8 µM: 94%
ROCK1
  remaining binding at 2.8 µM: 100%
CSNK1D
  remaining binding at 2.8 µM: 100%
ACVR1B
  remaining binding at 2.8 µM: 100%
IRAK4
  remaining binding at 2.8 µM: 94%
HIPK3
  remaining binding at 2.8 µM: 91%
NEK4
  remaining binding at 2.8 µM: 83%
[2]
  remaining binding at 2.8 µM: 100%
EPHA7
  remaining binding at 2.8 µM: 96%
EPHA6
  remaining binding at 2.8 µM: 100%
PFTAIRE2
  remaining binding at 2.8 µM: 100%
[3]
  remaining binding at 2.8 µM: 87%
NEK10
  remaining binding at 2.8 µM: 100%
BRK
  remaining binding at 2.8 µM: 96%
